Measurements: PubChem BioAssay AID330 (DTP/NCI, 2004)
Values joined by “and” are separate entries in the source; they are usually repeats but may differ in a detail not shown here. Equal values may be shown once. Inconclusive results and toxic doses are left out. How the source made its calls: active means survival T/C of 150% or more; inactive means T/C below 125% in these data.

Test system: P388 leukemia ip, CD2F1 mice, survival T/C
Experiment: NCI In Vivo Anticancer Drug Screen. Data for tumor model P388 Leukemia (intraperitoneal) in CD2F1 (CDF1) mice
Conditions: endpoint: median survival time, higher = longer survival
Outline: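 Mice carrying the transplanted tumor received test compound or vehicle. Survival was recorded in each group, and the value is the treated-group measurement divided by that of the vehicle-treated control group.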

[1] = dose: 50.0 mg/kg/injection, schedule: Q01DX009 (ip), vehicle: Klucel (hydroxypropylcellulose) (HPC)
[2] = dose: 100.0 mg/kg/injection, schedule: Q01DX009 (ip), vehicle: Klucel (hydroxypropylcellulose) (HPC)
[3] = dose: 200.0 mg/kg/injection, schedule: Q01DX009 (ip), vehicle: Klucel (hydroxypropylcellulose) (HPC)
[4] = dose: 60.0 mg/kg/injection, schedule: Q01DX005 (ip), vehicle: Klucel (hydroxypropylcellulose) (HPC)
[5] = dose: 50.0 mg/kg/injection, schedule: Q01DX009 (ip), vehicle: saline with Tween-80
[6] = dose: 100.0 mg/kg/injection, schedule: Q01DX009 (ip), vehicle: saline with Tween-80
[7] = dose: 200.0 mg/kg/injection, schedule: Q01DX009 (ip), vehicle: saline with Tween-80
[8] = dose: 400.0 mg/kg/injection, schedule: Q01DX009 (ip), vehicle: saline with Tween-80
[9] = dose: 15.0 mg/kg/injection, schedule: Q01DX005 (ip), vehicle: Klucel (hydroxypropylcellulose) (HPC)
[10] = dose: 12.5 mg/kg/injection, schedule: Q01DX009 (ip), vehicle: saline with Tween-80

Measured: T/C

CCN(CC)C(=O)S(=O)(=O)c1ccccc1
inactive: dose: 12.5 mg/kg/injection, schedule: Q01DX009 (ip), vehicle: Klucel (hydroxypropylcellulose) (HPC) 106 % of control | dose: 25.0 mg/kg/injection, schedule: Q01DX009 (ip), vehicle: Klucel (hydroxypropylcellulose) (HPC) 101 % of control and 98 % of control | [1] 120 % of control | [2] 111 % of control | [3] 110 % of control

COc1c2occc2c(OC)c2c(C)c(C(=O)OCCN3CCOCC3)oc12
inactive: [4] 96 % of control | dose: 120.0 mg/kg/injection, schedule: Q01DX005 (ip), vehicle: Klucel (hydroxypropylcellulose) (HPC) 91 % of control | dose: 240.0 mg/kg/injection, schedule: Q01DX005 (ip), vehicle: Klucel (hydroxypropylcellulose) (HPC) 91 % of control

CC(C)(C)N=C(CCC(C#N)(C#N)CCC(=NC(C)(C)C)Nc1ccc([N+](=O)[O-])cc1)Nc1ccc([N+](=O)[O-])cc1
inactive: [5] 98 % of control | [6] 95 % of control | [7] 88 % of control

CCCCCCCCCCCCCCCCNc1cccc2ccccc12
inactive: dose: 100.0 mg/kg/injection, schedule: Q01DX009 (ip), vehicle: saline sonified 95 % of control | [6] 100 % of control | dose: 100.0 mg/kg/injection, schedule: Q04DX003 (ip), vehicle: saline with Tween-80 95 % of control | dose: 200.0 mg/kg/injection, schedule: Q01DX009 (ip), vehicle: saline sonified 105 % of control | [7] 90 % of control | dose: 200.0 mg/kg/injection, schedule: Q04DX003 (ip), vehicle: saline with Tween-80 86 % of control | dose: 400.0 mg/kg/injection, schedule: Q01DX009 (ip), vehicle: saline sonified 95 % of control | [8] 90 % of control | dose: 400.0 mg/kg/injection, schedule: Q04DX003 (ip), vehicle: saline with Tween-80 95 % of control

CCc1nc(N)nc(N)c1-c1ccc(NC(C)c2ccccc2)c([N+](=O)[O-])c1 (configuration not stated)
inactive: dose: 3.75 mg/kg/injection, schedule: Q01DX005 (ip), vehicle: Klucel (hydroxypropylcellulose) (HPC) 101 % of control | dose: 7.5 mg/kg/injection, schedule: Q01DX005 (ip), vehicle: Klucel (hydroxypropylcellulose) (HPC) 101 % of control and 107 % of control | [9] 112 % of control and 113 % of control

CCOC(=O)N1CC2C3CN(C(=O)OCC)C4CC3(C(=O)O)C1CC24C(=O)O
inactive: [5] 109 % of control | [6] 100 % of control | [7] 102 % of control

O=[N+]([O-])c1ccc(/C=C/[n+]2ccc3ccccc3c2)o1
inactive: dose: 1.56 mg/kg/injection, schedule: Q01DX009 (ip), vehicle: saline 107 % of control | dose: 3.12 mg/kg/injection, schedule: Q01DX009 (ip), vehicle: saline 103 % of control | dose: 6.25 mg/kg/injection, schedule: Q01DX009 (ip), vehicle: saline 108 % of control and 91 % of control

CC(C)(C)NC=C(C#N)C#N
inactive: [5] 86 % of control

CCCOc1ccc(-c2nc(-c3ccc([N+](=O)[O-])cc3)cs2)cc1
inactive: [1] 113 % of control | [2] 104 % of control | [3] 104 % of control

CC(=O)N1CN=C2Sc3ccccc3N2C1
inactive: [9] 103 % of control | dose: 30.0 mg/kg/injection, schedule: Q01DX005 (ip), vehicle: Klucel (hydroxypropylcellulose) (HPC) 105 % of control | [4] 100 % of control and 104 % of control

CCCCCCCCCCCCCCCCOc1ccc(OC)cc1C(=O)NNC(=S)SC
inactive: dose: 50.0 mg/kg/injection, schedule: Q01DX009 (ip), vehicle: saline + alcohol 100 % of control | dose: 100.0 mg/kg/injection, schedule: Q01DX009 (ip), vehicle: saline + alcohol 103 % of control | dose: 200.0 mg/kg/injection, schedule: Q01DX009 (ip), vehicle: saline + alcohol 87 % of control

N#C/C(=C\c1cccs1)c1ccccc1
inactive: [5] 102 % of control | [6] 103 % of control | [7] 100 % of control | [8] 105 % of control

COc1cc(Cc2n[nH]c(=S)n2-c2ccccc2)c(S(=O)(=O)N2CCOCC2)cc1OC
inactive: dose: 60.0 mg/kg/injection, schedule: Q01DX005 (ip), vehicle: saline 102 % of control | dose: 120.0 mg/kg/injection, schedule: Q01DX005 (ip), vehicle: saline 95 % of control | dose: 240.0 mg/kg/injection, schedule: Q01DX005 (ip), vehicle: saline 95 % of control

O=C(CO)c1ccc([N+](=O)[O-])cc1
inactive: dose: 1.56 mg/kg/injection, schedule: Q01DX009 (ip), vehicle: saline with Tween-80 99 % of control | dose: 3.13 mg/kg/injection, schedule: Q01DX009 (ip), vehicle: saline with Tween-80 101 % of control | dose: 6.25 mg/kg/injection, schedule: Q01DX009 (ip), vehicle: saline with Tween-80 106 % of control | [10] 116 % of control

O=C1C2=Nc3ccccc3C(O)N2c2ccccc21 (configuration not stated)
inactive: [10] 88 % of control | dose: 25.0 mg/kg/injection, schedule: Q01DX009 (ip), vehicle: saline with Tween-80 89 % of control | [5] 90 % of control and 97 % of control | [6] 93 % of control | [7] 94 % of control

COc1cccc2c1C(=O)c1c(O)c3c(c(O)c1C2=O)CC(O)(C(O)CO)CC3OC1CC(N2CCSCC2)C(O)C(C)O1 (configuration not stated)
inactive: dose: 3.12 mg/kg/injection, schedule: Q04DX003 (ip), vehicle: saline 103 % of control | dose: 6.25 mg/kg/injection, schedule: Q04DX003 (ip), vehicle: saline 110 % of control | dose: 12.5 mg/kg/injection, schedule: Q04DX003 (ip), vehicle: saline 110 % of control and 112 % of control | dose: 25.0 mg/kg/injection, schedule: Q04DX003 (ip), vehicle: saline 122 % of control | dose: 100.0 mg/kg/injection, schedule: Q04DX003 (ip), vehicle: saline 122 % of control

CC1CCCCN1C (configuration not stated)
inactive: dose: 25.0 mg/kg/injection, schedule: Q01DX005 (ip), vehicle: saline with Tween-80 90 % of control | dose: 50.0 mg/kg/injection, schedule: Q01DX005 (ip), vehicle: saline with Tween-80 91 % of control | dose: 100.0 mg/kg/injection, schedule: Q01DX005 (ip), vehicle: saline with Tween-80 89 % of control

N#CN(Cc1ccccc1)C(c1ccccc1)(c1ccccc1)c1ccccc1.[Br][Sn]([c]1ccccc1)([c]1ccccc1)[c]1ccccc1
inactive: dose: 1.5 mg/kg/injection, schedule: Q01DX005 (ip), vehicle: saline with Tween-80 98 % of control | dose: 3.0 mg/kg/injection, schedule: Q01DX005 (ip), vehicle: saline with Tween-80 100 % of control | dose: 6.0 mg/kg/injection, schedule: Q01DX005 (ip), vehicle: saline with Tween-80 101 % of control | dose: 6.25 mg/kg/injection, schedule: Q01DX005 (ip), vehicle: saline with Tween-80 94 % of control
